# Test results published in patent US10952435B2, “Pyridine-2-carboxamides as nematocides” (SYNGENTA PARTICIPATIONS AG, priority 2013, dated 2021).
row,melting point [°C],Compound
1,78,O=C(NCCc1ccc(F)cc1F)c1ncccc1C(F)(F)F [A.005]
2,117 to 118,"Cc1cccnc1C(=O)NCC(F)(F)c1ccc(Cl)cc1Cl [A.009, N-[2-(2,4-dichlorophenyl)-2,2-difluoro-ethyl]-3-methyl-pyridine-2-carboxamide]"
3,69,"O=C(NCCc1ccc(Cl)cc1F)c1ncccc1C(F)(F)F [A.002, 3-Trifluoromethyl-pyridine-2-carboxylic acid [2-(4-chloro-2-fluoro-phenyl)-ethyl]-amide]"
4,95,"O=C(NCCc1ccc(C(F)(F)F)cc1F)c1ncccc1C(F)(F)F [A.001, 3-Trifluoromethyl-pyridine-2-carboxylic acid [2-(2-fluoro-4-trifluoromethyl-phenyl)-ethyl]-amide]"
